Assay results as given in PMC5290737, “Surface mediated cooperative interactions of drugs enhance mechanical forces for antibiotic action” (Scientific Reports, 2017).
Values after ≈ are worked out from the molar mass of the structure shown.

Legend:
[1] = ligand-ligand dissociation constant in solution; ref. 2 (Van, CE, Ori), ref. 5 (Rist), supplementary references; read-out: K1 Solution (complex aggregation constant); cited from earlier work
[2] = system: methicillin-resistant Staphylococcus aureus (MRSA); conditions: absence of polysorbate-80; supplementary references; cited from earlier work
[3] = system: membrane bound VRR (competitor Ac-VSR); assay: Competitive inhibition of drug-VRR cantilever response by Ac-VSR in solution; type: binding; conditions: for IC50: Van 50 μM or Ori 0.1 μM against VRR cantilever, fit of equation (1), read-out: IC50 (concentration of antagonist Ac-VSR giving 50% inhibition of drug-receptor interactions at the surface); for Ac-VSR concentration required to inhibit the mechanical response: Van 50 μM, Ori 0.1 μM against VRR
Procedure: In the first set of experiments, we assessed whether the 2-D boundary layer could mediate more efficient complex aggregation of antibiotics and thus lead to enhanced signal transduction compared to a 3-D solution. To achieve this, diacetyl vancomycin susceptible receptor (or Ac-VSR)[14] was added to the solution containing Van or Ori in order to act as a competitor against membrane bound VRR. […] The concentrations of Van and Ori in solution were kept constant at 50 μM and 0.1 μM respectively. These particular concentrations were chosen because (1) they give rise to relatively large mechanical bending signals, (2) they fall within the linear portions of the Langmuir adsorption isotherms, and (3) they require relatively low levels of Ac-VSR to inhibit the mechanical response at the surface. We therefore reasoned that if the interaction between a drug and Ac-VSR is independent of any surface effects then the amount of Ac-VSR which inhibits the mechanical response at a surface is expected to be the same for both Van and Ori. The concentration of antagonist (Ac-VSR) that gives rise to 50% inhibition (IC50) of drug-receptor interactions at the surface was used as measure of membrane effects on the association kinetics and mechanical response. […] To calculate the IC50, we analyzed the data using equation (1), whose detailed derivation has been reported previously.
Here σeq is the equilibrium mechanical stress, σligand1 is the mechanical stress generated by ligand1 in the absence of a competing ligand2, σligand2 is the corresponding minimum stress generated by ligand1 in the presence of a large excess of the concentration of competing ligand2. […] The IC50 for Ori is 3-fold larger than that of Van.

[4] = system: vancomycin resistant E. faecalis (VRE); conditions: absence of polysorbate-80; ref. 2 (Van), ref. 5 (Rist, CE), ref. 9 (Ori), supplementary references; cited from earlier work
[5] = target: vancomycin-resistant receptor (VRR); conditions: ref. 3 (Van), ref. 5 (Rist), ref. 4 (CE), supplementary references, read-out: Ksurf SPR; cited from earlier work
[6] = system: Staphylococcus aureus, enterococcus faecalis and enterococcus faecium; design: method as in PMID 19369269; conditions: cited from earlier work
[7] = target: vancomycin-susceptible receptor (VSR); assay: Surface plasmon resonance (SPR) binding to VSR; conditions: T100 BIAcore, fit of equation (2), read-out: Ksurf SPR
Procedure: The SPR sensor chip functionalization procedure is summarized (see methods & materials Supplementary Information) while the measurement protocol has been described previously. In brief we used a T100 BIAcore SPR instrument in which a series of binding analyses for Van was performed. […] The corresponding SPR response signals featured an S-shaped curve, with a steep rise, then a plateau when Van concentration was increased beyond 50 μM (Fig. 7e,f). The resulting SPR differential response signals in sodium phosphate buffer solution for 0.1 μM, 0.5 μM, 2 μM, 8 μM and 128 μM were then computed using equation (2) to calculate the surface thermodynamic equilibrium dissociation constant, Ksurf of drug-target interactions.
Surface plasmon resonance (SPR) sensor chip functionalization procedure. We applied the same cantilever functionalization procedure to the SPR sensor chip functionalization. […]
The differential stress measurements obtained from cantilever chips are typically associated with multiple parameters including number of repeated measurements, concentration and the number of cantilevers where each array has eight individual cantilevers. The statistical analysis was found to be essential for replacing a vast quantity of data with numbers such as the averages and standard deviations. […]

| Structure (SMILES) | Kd [1] [mM] | MIC MRSA [2] [mg/L] | IC50 for Ori relative to Van ([3]; Ac-VSR competition against VRR) [fold] | IC50 [3] [µM] | Ac-VSR concentration required to inhibit the mechanical response [3] | MIC VRE [4] [mg/L] | Kd [5] [µM] | time–kill kinetics [6] [h] | Kd [7] [nM] |
| --- | --- | --- | --- | --- | --- | --- | --- | --- | --- |
| CN[C@H](CC(C)C)C(=O)N[C@H]1C(=O)N[C@@H](CC(N)=O)C(=O)N[C@H]2C(=O)N[C@H]3C(=O)N[C@H](C(=O)N[C@H](C(=O)O)c4cc(O)cc(O)c4-c4cc3ccc4O)[C@H](O[C@H]3C[C@](C)(N)[C@@H](O)[C@H](C)O3)c3ccc(c(Cl)c3)Oc3cc2cc(c3O[C@@H]2O[C@H](CO)[C@@H](O)[C@H](O)[C@H]2O[C@H]2C[C@](C)(NCc3ccc(-c4ccc(Cl)cc4)cc3)[C@@H](O)[C@H](C)O2)Oc2ccc(cc2Cl)[C@H]1O [Ori, oritavancin] | 0.0016 | 0.13 to 1.01 | 3 | 50.7 ± 2.1 | more than 500 μM | 0.25 to 2 | – | – | – |
| CN[C@H](CC(C)C)C(=O)N[C@H]1C(=O)N[C@@H](CC(N)=O)C(=O)N[C@H]2C(=O)N[C@H]3C(=O)N[C@H](C(=O)N[C@H](C(=O)O)c4cc(O)cc(O)c4-c4cc3ccc4O)[C@H](O)c3ccc(c(Cl)c3)Oc3cc2cc(c3O[C@@H]2O[C@H](CO)[C@@H](O)[C@H](O)[C@H]2O[C@H]2C[C@](C)(N)[C@H](O)[C@H](C)O2)Oc2ccc(cc2Cl)[C@H]1O [Van, vancomycin] | 20 | 0.5 to 4 | – | 15.4 ± 0.2 | 500 µM | 512 (≈ 353 µM) | 526 | 6 to 24 | 1100 ± 400 |
